Test results published in patent publication US12629419B2, “Prevention or mitigation of T-cell engaging agent-related adverse effects” (Hoffmann-La Roche Inc., priority 2020, dated 2026).
“Also recorded” adds a separate entry of the source.

What was measured:
[1] = tested on: MKN45 NucLight Red (NLR) target cells; test: killing assay with PBMCs, MKN45 NLR target cells and CEA-TCB (Incucyte); format: cell-based
CD4+ and CD8+ T cells = test: T cell activation (CD25, CD69 by flow cytometry) in CEA-TCB killing assay; format: cell-based; conditions: 10 nM CEA-TCB; for T cell activation triggered by the TCB: summary statement, also for target cell killing; for CD25 and CD69 expression on CD4+ and CD8+ T cells (T cell activation): 66 h, fixed compound concentrations; for expression of CD69 on CD8+ T cells / expression of CD25 on CD4+ T cells / expression of CD69 on CD4+ T cells / expression of CD25 on CD8+ T cells: 72 h; for expression of CD25 on CD4+ T cells / expression of CD69 on CD4+ T cells / expression of CD25 on CD8+ T cells: concentrations above 25 nM; for expression of CD25 on CD4+ T cells / expression of CD69 on CD4+ T cells: reduced from ~45%; for expression of CD25 on CD8+ T cells: reduced from ~75% (everolimus: ~70%)
[2] = tested on: CD20-TCB-induced cytokine release; test: CD20-TCB-induced cytokine release (Luminex); format: cell-based; conditions: 24 h; for cytokine release induced by CD20-TCB (IFN-γ, IL-2, TNF-α, GM-CSF and IL-6): concentrations above 12.5 nM; for CD20-TCB-induced cytokine release: escalating CD20-TCB / 1 nM CD20-TCB, fixed compound concentrations
Experimental: A similar experiment was conducted with another TCB.
A similar experiment was conducted with CD20-TCB.
A similar experiment was conducted with CD20-TCB. WSU DLCL2 cells were co-cultured together with PBMCs in the presence of 1 nM CD20-TCB, and escalating everolimus doses ranging from 0 nM to 1000 nM (FIG. 13).
A similar experiment was conducted with CD20-TCB. WSU DLCL2 cells were co-cultured together with PBMCs in the presence of 1 nM CD20-TCB, and escalating ruxolitinib doses ranging from 0 nM to 1000 nM (FIG. 13).
A similar experiment was conducted with another TCB. […] The killing of B cells was measured as a readout for the impact of the various compounds on TCB efficacy at 24 h (FIGS. 27 and 28). […] Lastly, the levels of cytokines (TNF-α, IFN-γ, IL-2, IL-6, IL-4, IL-10, GM-CSF and IL-1β) were analyzed by Luminex at assay endpoint to assess the impact of the different treatments on TCB-induced cytokine release (FIGS. 32 and 33).
At 24 hours, tumor cell killing was measured by flow cytometry by exclusion of dead CTV cells. The supernatants were collected and cytokines were measured by Luminex.

WSU DLCL2 tumor cells = test: CD20-TCB killing assay, inhibitors added after 18 hours of activation: tumor cell killing; format: cell-based; conditions: 100 nM added at 18 h
Experimental: FIG. 34. In vitro killing assay set-up. Cell Trace™ Violet (CTV) labelled WSU DLCL2 tumor cells were co-cultured together with PBMCs [E:T=200′000:20′000] and stimulated with CD20-TCB for 18 h.
In this assay, CTV labelled WSU DLCL2 tumors cells were co-cultured with PBMCs in the presence of escalating doses of CD20-TCB for 18 hours.

[3] = tested on: A375 NucLight Red (NLR) target-cells; test: killing assay with PBMCs, A375 NLR target cells and MAGEA4-TCB (Incucyte); format: cell-based; conditions: 8 nM MAGEA4-TCB; escalating inhibitor concentrations
[4] = tested on: MAGEA4-TCB-induced cytokine release; test: MAGEA4-TCB-induced cytokine release; format: cell-based; conditions: 8 nM MAGEA4-TCB, 72 hours
Experimental: FIG. 45. Effect of escalating concentrations (c) of ruxolitinib on IFN-γ (A), IL-2 (B), TNF-α (C), GM-CSF (D), IL-6 (E), IL-1β (F), IL-8 (G), MCP-1 (H) and IL-10 (I) levels induced by 8 nM MAGEA4-TCB. At 72 hours, the supernatants were collected and cytokines were analyzed by cytometric bead array (CBA). Mean of technical replicates+/−SD for 1 representative donor.
FIG. 47. […] At 72 hours, the supernatants were collected and cytokines were analyzed by CBA. Mean of technical replicates+/−SD for 1 representative donor.
The effect of ruxolitinib on TCB-induced tumor cell killing and cytokine release was assessed using an additional TCB, the MAGEA4-TCB (SEQ ID NOs 37-56).

[5] = tested on: CD19-TCB-induced cytokine release; test: CD19-TCB-induced cytokine release in SUDLH-8 assay (Luminex); format: cell-based; conditions: 24 hrs
Experimental: PBMCs were co-cultured together with CellTrace™ Violet (CTV) labelled SUDLH-8 tumor cells and escalating concentrations of CD19-TCB in the presence of the different kinase inhibitors, including also the Src inhibitor dasatinib (FIG. 64). At assay endpoint (24 hrs), the killing of CTV labelled SUDLH-8 cells was measured by flow cytometry by exclusion of the dead SUDLH-8 cells with a Live/Dead stain. […] Lastly, the levels of cytokines were measured in the supernatants of the assay to evaluate the effect of mTOR, JAK and Src inhibitors on CD19-TCB-induced cytokine release.
(§1) At assay endpoint (24 hrs), the killing of CTV labelled SUDLH-8 cells was measured by flow cytometry by exclusion of the dead SUDLH-8 cells with a Live/Dead stain. […] Lastly, the levels of cytokines were measured in the supernatants of the assay to assess the effect of the JAK inhibitors on CD19-TCB-induced cytokine release.
as §1, with “stain to evaluate the effect of the different mitigation approaches on CD19-TCB-dependent killing.” for “stain.”, “address” for “assess”

CD19+ B cells = test: CD20-TCB-induced B cell depletion in non-tumor bearing humanized NSG mice; format: in vivo; conditions: 48 and 72 hours; 0.15 mg/kg CD20-TCB; p.o. 2, 5, 10 mg/kg sirolimus, 10 mg/kg everolimus, 10 mg/kg temsirolimus, ruxolitinib
Experimental: FIG. 95. In vivo experiment timelines and dosing schedule.
FIG. 96. […] The proportion of CD19+ B cells among human CD45+(huCD45) cells was measured by flow cytometry in the blood collected 48 hrs and 72 hrs post-treatment with CD20-TCB. Mean of n=4 mice or n=3 mice (everolimus group)+/−SEM. The statistical comparison to the vehicle group is summarized table (C) where the p values were calculated by Kruskal-Wallis test.
Different doses of mTOR, JAK and Src kinase inhibitors were tested to determine the optimal dose that reduces CD20-TCB-induced cytokine release while minimally interfering with B cell depletion. […] The doses of 30 and 60 mg/kg were tested for ruxolitinib and the doses of 10 and 50 mg/kg were tested for dasatinib. To reproduce the clinical route of administration, the different kinase inhibitors were given orally (p.o.) once or twice per day as depicted in FIG. 95. Mice were bled 4 hours and 24 hours after the treatment with CD20-TCB (FIG. 95) to collect serum for cytokine level measurements by Luminex. Additionally, blood was collected 48 hours and 72 hours (termination) post treatment with CD20-TCB to measure the percentage of CD19+ B cells among human CD45+ cells by flow cytometry (FIG. 95).

[6] = inhibitor doses 12.5 nM to 1 μM, 50 000 PBMCs: 5 000 target cells, Incucyte
[7] = 1 nM CD20-TCB, three donors, between 18 hours and 44 hours
[8] = measured at 44 hours, escalating CD20-TCB
[9] = 100 nM, compared with dexamethasone

| SMILES | MKN45 NLR target cell killing by 10 nM CEA-TCB [1, 6] | T cell activation triggered by the TCB (CD4+ and CD8+ T cells) | CD25 and CD69 expression on CD4+ and CD8+ T cells (T cell activation) (CD4+ and CD8+ T cells) | expression of CD69 on CD8+ T cells (CD4+ and CD8+ T cells) | expression of CD25 on CD4+ T cells (CD4+ and CD8+ T cells) | expression of CD69 on CD4+ T cells (CD4+ and CD8+ T cells) | expression of CD25 on CD8+ T cells (CD4+ and CD8+ T cells) | cytokine release induced by CD20-TCB (IFN-γ, IL-2, TNF-α, GM-CSF and IL-6) ([2]; 1 nM CD20-TCB) | CD20-TCB-induced cytokine release [2] | CTV labelled WSU DLCL2 tumor cell killing (WSU DLCL2 tumor cells; [7]) | CTV labelled WSU DLCL2 tumor cell killing (WSU DLCL2 tumor cells; [8]) | MAGEA4-TCB induced tumor cell killing [3] | levels of IFN-γ, IL-2, TNF-α, IL-8, IL-6, MCP-1 and IL-10 ([4]; with increasing concentrations) | CD19-TCB-induced cytokine release ([5]; 100 nM inhibitor) | CD19-TCB-induced IFN-γ and TNF-α [5, 9] | B cell depletion induced by CD20-TCB (percentage of CD19+ B cells among human CD45+ cells in peripheral blood) (CD19+ B cells) | further results |
| --- | --- | --- | --- | --- | --- | --- | --- | --- | --- | --- | --- | --- | --- | --- | --- | --- | --- |
| CO[C@H]1C[C@@H]2CC[C@@H](C)[C@@](O)(O2)C(=O)C(=O)N2CCCC[C@H]2C(=O)O[C@H]([C@H](C)C[C@@H]2CC[C@@H](OCCO)[C@H](OC)C2)CC(=O)[C@H](C)/C=C(\C)[C@@H](O)[C@@H](OC)C(=O)[C@H](C)C[C@H](C)/C=C/C=C/C=C/1C [everolimus, Everolimus] | only partially reduced | does not fully inhibit | milder impact | did not affect | ~15% | ~25% | 40% | strongly reduced | comparable effect to dexamethasone and dasatinib | did not impact further | did not impact | did not prevent | reduced | comparable to the effect of the corticosteroid dexamethasone | comparable to the effect of dexamethasone | did not interfere; also recorded: minimally interfered | – |
| N#CC[C@H](C1CCCC1)n1cc(-c2ncnc3[nH]ccc23)cn1 [ruxolitinib, Ruxolitinib] | – | does not fully inhibit | milder impact | – | – | – | – | – | comparable effect to dexamethasone and dasatinib | did not impact further | did not impact | did not prevent | – | comparable to the effect of the corticosteroid dexamethasone | comparable to the effect of dexamethasone | slightly interfered; also recorded: minimally interfered | killing of MKN45 NLR tumor cells induced by 1 nM CEA-TCB ([1]; concentration of 1 μM): partially prevented; killing of MKN45 NLR tumor cell induced by 1 nM CEA-TCB ([1]; concentrations between 0 nM and 100 nM): did not prevent; MKN45 NLR target cell killing by 10 nM CEA-TCB ([1]; inhibitor doses 6.25 nM to 100 nM): only partially reduced; expression of CD25 and CD69 on both CD4+ and CD8+ T cells (CD4+ and CD8+ T cells; 69 h, escalating doses): dose-dependently influenced; release of TNF-α, IL-2 and GM-CSF ([2]; 1 nM CD20-TCB): did not have a strong effect; IL-6 and IFN-γ release induced by CD20-TCB ([2]; 1 nM CD20-TCB, concentrations above 25 nM): strongly reduced; levels of GM-CSF and IL-2 [4]: not impacted; levels of IFN-γ, TNF-α, IL-8, IL-6, MCP-1, IL-10 and IL-1β ([4]; with increasing concentrations): reduced; CD19-TCB-induced IFN-γ, TNF-α, IL-6 and GM-CSF release ([5]; 100 nM inhibitor): prevented; CD19-TCB-induced IL-2 and GM-CSF [5, 9]: weaker |
| CO[C@H]1C[C@@H]2CC[C@@H](C)[C@@](O)(O2)C(=O)C(=O)N2CCCC[C@H]2C(=O)O[C@H]([C@H](C)C[C@@H]2CC[C@@H](O)[C@H](OC)C2)CC(=O)[C@H](C)/C=C(\C)[C@@H](O)[C@@H](OC)C(=O)[C@H](C)C[C@H](C)/C=C/C=C/C=C/1C [sirolimus, Sirolimus] | only partially reduced | does not fully inhibit | milder impact | did not affect | ~15% | ~25% | 40% | strongly reduced | comparable effect to dexamethasone and dasatinib | did not impact further | did not impact | did not prevent | reduced | comparable to the effect of the corticosteroid dexamethasone | comparable to the effect of dexamethasone | did not interfere; also recorded: minimally interfered | – |
| CO[C@H]1C[C@@H]2CC[C@@H](C)[C@@](O)(O2)C(=O)C(=O)N2CCCC[C@H]2C(=O)O[C@H]([C@H](C)C[C@@H]2CC[C@@H](OC(=O)C(C)(CO)CO)[C@H](OC)C2)CC(=O)[C@H](C)/C=C(\C)[C@@H](O)[C@@H](OC)C(=O)[C@H](C)C[C@H](C)/C=C/C=C/C=C/1C [temsirolimus, Temsirolimus] | only partially reduced | does not fully inhibit | milder impact | did not affect | ~15% | ~25% | 40% | – | comparable effect to dexamethasone and dasatinib | did not impact further | did not impact | did not prevent | reduced | comparable to the effect of the corticosteroid dexamethasone | comparable to the effect of dexamethasone | did not interfere; also recorded: minimally interfered | – |
